Test results: publication PMC8523698, “Preclinical characterization of an intravenous coronavirus 3CL protease inhibitor for the potential treatment of COVID19” (Nature Communications, 2021)
≈ marks a conversion by molar mass, not a printed value. Where “and” joins values, the source holds several entries; their conditions need not be identical. Identical values can stand only once. Like-named read-outs stand apart in the source and are kept apart here.

How the values were obtained:
CYP2D6 = CYP2D6 (Homo sapiens, UniProt P10635); assay: Reversible CYP inhibition in human liver microsomes
[1] = Rat pharmacokinetic study; conditions: for Vd: Vdss
MATE1 = target: T1, MATE1 (Homo sapiens, UniProt Q96FL8); assay: Transporter inhibition using transfected HEK293 cells; conditions: IC50, [14C]Metformin (20 µM)
T1 sequence (Q96FL8 1-570): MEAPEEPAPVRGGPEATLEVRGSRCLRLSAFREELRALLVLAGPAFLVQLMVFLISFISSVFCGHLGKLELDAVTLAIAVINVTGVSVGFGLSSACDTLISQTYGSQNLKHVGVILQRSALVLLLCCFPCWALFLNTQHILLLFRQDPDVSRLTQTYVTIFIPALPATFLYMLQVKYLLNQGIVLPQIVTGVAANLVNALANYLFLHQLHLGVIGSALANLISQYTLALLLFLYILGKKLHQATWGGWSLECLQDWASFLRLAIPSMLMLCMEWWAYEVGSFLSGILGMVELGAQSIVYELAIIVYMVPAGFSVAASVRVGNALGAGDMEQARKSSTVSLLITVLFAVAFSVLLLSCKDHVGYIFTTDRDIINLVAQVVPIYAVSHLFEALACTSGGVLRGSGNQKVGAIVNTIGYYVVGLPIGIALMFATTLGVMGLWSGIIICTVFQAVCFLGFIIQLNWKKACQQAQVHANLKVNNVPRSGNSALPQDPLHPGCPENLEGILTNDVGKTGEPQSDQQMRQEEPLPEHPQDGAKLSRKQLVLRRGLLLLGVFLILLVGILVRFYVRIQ

OCT1 = target: T2, OCT1 (Homo sapiens, UniProt O15245); assay: as above; assay type: in vitro ADME; conditions: IC50, [14C]Metformin (10 µM)
T2 construct: expressed in transfected cells; host or cells: HEK293
T2 sequence (O15245 1-554): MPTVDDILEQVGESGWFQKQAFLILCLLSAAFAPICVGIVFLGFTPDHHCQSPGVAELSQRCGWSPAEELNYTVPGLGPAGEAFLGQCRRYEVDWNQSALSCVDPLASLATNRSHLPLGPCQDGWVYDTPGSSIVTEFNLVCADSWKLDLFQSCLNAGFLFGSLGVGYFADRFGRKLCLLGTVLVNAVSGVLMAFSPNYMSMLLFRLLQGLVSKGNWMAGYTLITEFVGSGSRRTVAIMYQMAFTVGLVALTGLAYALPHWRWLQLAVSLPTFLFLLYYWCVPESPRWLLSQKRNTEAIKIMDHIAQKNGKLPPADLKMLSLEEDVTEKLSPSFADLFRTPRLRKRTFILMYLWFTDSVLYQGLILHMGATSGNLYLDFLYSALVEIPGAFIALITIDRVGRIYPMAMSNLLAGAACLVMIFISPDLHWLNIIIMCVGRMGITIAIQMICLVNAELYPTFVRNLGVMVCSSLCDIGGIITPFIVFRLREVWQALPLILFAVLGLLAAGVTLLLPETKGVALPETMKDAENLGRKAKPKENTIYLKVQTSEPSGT

OAT1 = target: T3, OAT1 (Homo sapiens, UniProt Q4U2R8); assay: Transporter inhibition using transfected HEK293 cells; conditions: IC50, [3H]PAH (0.5 µM)
T3 sequence (Q4U2R8 1-563): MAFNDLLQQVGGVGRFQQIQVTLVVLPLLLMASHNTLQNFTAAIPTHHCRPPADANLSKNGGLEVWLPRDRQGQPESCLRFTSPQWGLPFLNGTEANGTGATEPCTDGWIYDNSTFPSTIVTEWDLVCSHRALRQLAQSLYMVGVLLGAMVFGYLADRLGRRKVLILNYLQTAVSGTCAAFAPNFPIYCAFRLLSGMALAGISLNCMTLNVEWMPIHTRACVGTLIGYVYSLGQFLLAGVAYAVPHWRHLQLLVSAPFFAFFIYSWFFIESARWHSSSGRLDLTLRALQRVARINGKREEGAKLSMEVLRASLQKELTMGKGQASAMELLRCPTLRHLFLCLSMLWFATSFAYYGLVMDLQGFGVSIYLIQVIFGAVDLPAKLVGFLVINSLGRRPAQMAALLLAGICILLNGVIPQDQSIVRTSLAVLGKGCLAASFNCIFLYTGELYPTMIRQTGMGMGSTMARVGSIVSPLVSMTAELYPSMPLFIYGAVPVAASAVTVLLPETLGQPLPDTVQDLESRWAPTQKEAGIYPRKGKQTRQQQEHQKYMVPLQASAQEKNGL

[2] = rat, PF-07304814 prodrug dosed […] intravenous, individual rats, […]

Sequence of CYP2D6 (P10635 whole entry): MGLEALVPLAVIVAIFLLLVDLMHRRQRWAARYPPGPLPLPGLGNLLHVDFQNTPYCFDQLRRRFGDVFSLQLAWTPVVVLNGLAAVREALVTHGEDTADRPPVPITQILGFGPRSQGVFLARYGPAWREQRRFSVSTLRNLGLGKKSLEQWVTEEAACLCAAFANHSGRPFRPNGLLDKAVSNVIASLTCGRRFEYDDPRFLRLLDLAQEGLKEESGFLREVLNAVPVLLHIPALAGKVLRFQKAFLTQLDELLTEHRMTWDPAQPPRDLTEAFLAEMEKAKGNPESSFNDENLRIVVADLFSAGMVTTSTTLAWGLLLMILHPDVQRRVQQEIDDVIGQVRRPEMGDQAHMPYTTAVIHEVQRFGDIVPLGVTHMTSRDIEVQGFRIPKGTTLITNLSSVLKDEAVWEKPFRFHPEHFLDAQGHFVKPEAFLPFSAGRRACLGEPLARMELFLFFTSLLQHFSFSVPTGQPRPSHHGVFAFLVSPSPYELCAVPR

## COc1cccc2[nH]c(C(=O)N[C@@H](CC(C)C)C(=O)N[C@@H](C[C@@H]3CCNC3=O)C(=O)COP(=O)(O)O)cc12 [PF-07304814]
CYP2D6
  IC50: > 100 µM
CYP2D6; CYP 2D6, 0.01 µM, 30-Minute Preincubation, 0.01 µM
  Percent of Control Activity: 97.3% and 99.6%
CYP2D6; CYP 2D6, 0.01 µM, Zero-Minute Preincubation, 0.01 µM
  Percent of Control Activity: 101.0% and 93.7%
CYP2D6; CYP 2D6, 0.158 µM, 30-Minute Preincubation, 0.158 µM
  Percent of Control Activity: 96.0%
CYP2D6; CYP 2D6, 0.158 µM, Zero-Minute Preincubation, 0.158 µM
  Percent of Control Activity: 97.1% and 95.4%
CYP2D6; CYP 2D6, 0.398 µM, 30-Minute Preincubation, 0.398 µM
  Percent of Control Activity: 95.2% and 103.0%
CYP2D6; CYP 2D6, 0.398 µM, Zero-Minute Preincubation, 0.398 µM
  Percent of Control Activity: 98.0% and 97.1%
CYP2D6; CYP 2D6, 1 µM, 30-Minute Preincubation, 1 µM
  Percent of Control Activity: 95.2% and 99.6%
CYP2D6; CYP 2D6, 1 µM, Zero-Minute Preincubation, 1 µM
  Percent of Control Activity: 94.2%
CYP2D6; CYP 2D6, 15.8 µM, 30-Minute Preincubation, 15.8 µM
  Percent of Control Activity: 101.2% and 99.3%
CYP2D6; CYP 2D6, 15.8 µM, Zero-Minute Preincubation, 15.8 µM
  Percent of Control Activity: 97.0%
CYP2D6; CYP 2D6, 39.8 µM, 30-Minute Preincubation, 39.8 µM
  Percent of Control Activity: 99.9% and 102.0%
CYP2D6; CYP 2D6, 39.8 µM, Zero-Minute Preincubation, 39.8 µM
  Percent of Control Activity: 95.5% and 101.2%
CYP2D6; CYP 2D6, 100 µM, 30-Minute Preincubation, 100 µM
  Percent of Control Activity: 93.7% and 95.4%
CYP2D6; CYP 2D6, 100 µM, Zero-Minute Preincubation, 100 µM
  Percent of Control Activity: 68.1% and 92.0% and 98.1%
CYP2D6; Dextromethorphan O-demethylation, T0
  IC50: > 100 µM
CYP2D6; human, microsomes, pH 7.4, Percent of Control Activity, CYP 2D6, 0.01 µM, 30-Minute Preincubation
  activity at 0.01 µM: 101%
CYP2D6; human, microsomes, pH 7.4, Percent of Control Activity, CYP 2D6, 0.01 µM, Zero-Minute Preincubation
  activity at 0.01 µM: 99.1%
CYP2D6; human, microsomes, pH 7.4, Percent of Control Activity, CYP 2D6, 0.158 µM, 30-Minute Preincubation
  activity at 0.158 µM: 103%
CYP2D6; human, microsomes, pH 7.4, Percent of Control Activity, CYP 2D6, 0.158 µM, Zero-Minute Preincubation
  activity at 0.158 µM: 102%
CYP2D6; human, microsomes, pH 7.4, Percent of Control Activity, CYP 2D6, 0.398 µM, 30-Minute Preincubation
  activity at 0.398 µM: 103%
CYP2D6; human, microsomes, pH 7.4, Percent of Control Activity, CYP 2D6, 0.398 µM, Zero-Minute Preincubation
  activity at 0.398 µM: 101%
CYP2D6; human, microsomes, pH 7.4, Percent of Control Activity, CYP 2D6, 1 µM, 30-Minute Preincubation
  activity at 1 µM: 104%
CYP2D6; human, microsomes, pH 7.4, Percent of Control Activity, CYP 2D6, 1 µM, Zero-Minute Preincubation
  activity at 1 µM: 98.7%
CYP2D6; human, microsomes, pH 7.4, Percent of Control Activity, CYP 2D6, 15.8 µM, 30-Minute Preincubation
  activity at 15.8 µM: 102%
CYP2D6; human, microsomes, pH 7.4, Percent of Control Activity, CYP 2D6, 15.8 µM, Zero-Minute Preincubation
  activity at 15.8 µM: 106%
CYP2D6; human, microsomes, pH 7.4, Percent of Control Activity, CYP 2D6, 39.8 µM, 30-Minute Preincubation
  activity at 39.8 µM: 102%
CYP2D6; human, microsomes, pH 7.4, Percent of Control Activity, CYP 2D6, 39.8 µM, Zero-Minute Preincubation
  activity at 39.8 µM: 102%
CYP2D6; human, microsomes, pH 7.4, Percent of Control Activity, CYP 2D6, 100 µM, 30-Minute Preincubation
  activity at 100 µM: 102%
[1]; male, Wistar-Hannover, rat, plasma, iv, CL, rat IV, PF-07304814 […] (n=2, range), PF-00835231 2mg/kg (n=3, ± SD)
  clearance: 194 mL/min/kg
[1]; male, Wistar-Hannover, rat, plasma, iv, Terminal T1/2, rat IV, PF-07304814 […] (n=2, range), PF-00835231 2mg/kg (n=3, ± SD)
  half-life: 18 min
[1]; male, Wistar-Hannover, rat, plasma, iv, rat IV, PF-07304814 […] (n=2, range), PF-00835231 2mg/kg (n=3, ± SD)
  Vd: 0.58 L/kg
[1]; male, Wistar-Hannover, rat, plasma, iv, […], Clearance, Mean Data, PF-07304814 prodrug dosed […] intravenous, mean
  clearance: 194 mL/min/kg
[1]; male, Wistar-Hannover, rat, plasma, iv, […], Clearance, PF-07304814 prodrug dosed […] intravenous, individual rats
  clearance: 168 mL/min/kg
[1]; male, Wistar-Hannover, rat, plasma, iv, […], Half life, Mean Data, PF-07304814 prodrug dosed […] intravenous, mean
  half-life: 18 min
[1]; male, Wistar-Hannover, rat, plasma, iv, […], Half life, PF-07304814 prodrug dosed […] intravenous, individual rats
  half-life: 21.6 min
[1]; male, Wistar-Hannover, rat, plasma, iv, […], Mean Data, PF-07304814 prodrug dosed […] intravenous, mean
  Vd: 0.58 L/kg
[1]; male, Wistar-Hannover, rat, plasma, iv, […], PF-07304814 prodrug dosed […] intravenous, individual rats
  Vd: 0.567 L/kg
[1]; rat IV, PF-07304814 […], PF-00835231 2mg/kg
  %unchanged in urine: < 0.1%
[1]; [2]
  Half life: 13.8 min
  Vdss: 0.592 L/kg
  clearance: 220 mL/min/kg
MATE1
  IC50: > 300 µM
OCT1
  IC50: > 300 µM
Solubility measurement; deionized water and pH buffers
  solubility at 48 h: > 200 mg/mL
Solubility measurement; deionized water and pH buffers (aqueous)
  solubility at 48 h: 200 mg/mL (≈ 362 mM)
OAT1
  IC50: > 300 µM
